The test system of this assay is UM-C17 colon tumor cells. Nature of the assay: UM-C17 colon tumor xenograft growth. Type of assay: in vivo, NOD/SCID mice. The following applies: 10 mg/kg i.p. two times per week from day 19, tumors approximately 100 mm^3. As for the experimental part:
In certain embodiments, anti-Jagged 1 antibodies were analyzed for their ability to reduce the growth of UM-C17 colon tumor cells. Dissociated UM-C17 cells (10,000 per animal) were injected subcutaneously into the right flank region of 6-8 week old NOD/SCID mice. Day 19 after tumor cell injection, when tumors were approximately 100 mm^3, animals were injected intraperitoneal (i.p.) with either 10 mg/kg 64M14 anti-Jagged 1 antibodies, 10 mg/kg 64M14 anti-Jagged 1 antibody and 10 mg/kg Avastin (anti-VEGF), Avastin alone, or control antibody anti-DNP (dinitrophenol or anti-hapten) (n=10 per group) two times per week for the duration of the experiment. Both treatment with 64M14 antibodies and Avastin reduced tumor growth by close to 50% compared to controls (FIG. 4).

On to Avastin: anti-VEGF antibody, for which the “reduction of tumor growth compared to control antibodies” value was about 50%.

Values taken from patent publication US8802103B2, “Compositions and methods for diagnosing and treating cancer” (OncoMed Pharmaceuticals, Inc., priority 2007, dated 2014).
